Like-named read-outs stand apart in the source and are kept apart here.
Legend:
[1] = Population pharmacokinetic model; type: in vivo, human; conditions: estimate (% RSE)
[2] = Non-compartmental plasma pharmacokinetics after a single oral filgotinib dose; type: in vivo; conditions: male, human
JAK1 = conditions: human whole blood; cited from earlier work
[3] = type: in vivo, human; conditions: for Tmax / AUC(0-t) / Cmax / concentration at 12 h / concentration at 24 h: oral
[4] = test system: JAK1 (IL-6-induced STAT1 phosphorylation); type: cell-based, human; conditions: sigmoid Emax model, common to filgotinib and metabolite; estimate (% RSE)

Effect of sex (on V C/F) ([1]; covariate effect): 2.95 (47.7)
Relative increase in bioavailability in RA patients vs healthy volunteers [1]: 0.216 (39.0)
ka (first-order absorption rate constant) ([1]; log-transformed parameter): −0.733 (5.64) /h
FRAC300 mg ([1]; probit-transformed parameter, 300 mg dose): 0.375 (23.9)
FRAC450 mg ([1]; probit-transformed parameter, 450 mg dose): 0.363 (38.5)
AUC(0-inf) ([2]; 10 mg): 136 ng·h/mL
Cmax ([2]; 10 mg): 35.7 ng/mL
Tmax ([2]; 10 mg): 1 h
half-life ([2]; 10 mg): 6.38 h
AUC(0-inf) ([2]; 25 mg): 348 ng·h/mL
Cmax ([2]; 25 mg): 83 ng/mL
Tmax ([2]; 25 mg): 2.5 h
half-life ([2]; 25 mg): 5.72 h
AUC(0-inf) ([2]; 50 mg): 771 ng·h/mL
Cmax ([2]; 50 mg): 247 ng/mL
Tmax ([2]; 50 mg): 2 h
half-life ([2]; 50 mg): 5.28 h
AUC(0-inf) ([2]; 100 mg): 1740 ng·h/mL
Cmax ([2]; 100 mg): 565 ng/mL
Tmax ([2]; 100 mg): 2 h
half-life ([2]; 100 mg): 4.91 h
AUC(0-inf) ([2]; 200 mg): 4840 ng·h/mL
Cmax ([2]; 200 mg): 1160 ng/mL
Tmax ([2]; 200 mg): 3 h
half-life ([2]; 200 mg): 5.68 h
Tmax ([3]; male, human, plasma): 0.5 to 5 h
AUC(0-t) ([3]; male, human, plasma, 25 mg): 346 ng·h/mL
Cmax ([3]; male, human, plasma, 25 mg): 144 ng/mL
Tmax ([3]; male, human, plasma, 25 mg): 0.5 h
concentration at 12 h ([3]; male, human, plasma, 25 mg): 3.75 ng/mL
AUC(0-t) ([3]; male, human, plasma, 50 mg): 758 ng·h/mL
Cmax ([3]; male, human, plasma, 50 mg): 211 ng/mL
Tmax ([3]; male, human, plasma, 50 mg): 1.5 h
concentration at 12 h ([3]; male, human, plasma, 50 mg): 9.52 ng/mL
AUC(0-t) ([3]; male, human, plasma, 100 mg): 2380 ng·h/mL
Cmax ([3]; male, human, plasma, 100 mg): 556 ng/mL
Tmax ([3]; male, human, plasma, 100 mg): 3 h
concentration at 12 h ([3]; male, human, plasma, 100 mg): 27.8 ng/mL
AUC(0-t) ([3]; male, human, plasma, 200 mg): 4450 ng·h/mL
Cmax ([3]; male, human, plasma, 200 mg): 1200 ng/mL
Tmax ([3]; male, human, plasma, 200 mg): 2 h
concentration at 24 h ([3]; male, human, plasma, 200 mg): 6.04 ng/mL
AUC(0-t) ([3]; male, human, plasma, 300 mg): 4400 ng·h/mL
Cmax ([3]; male, human, plasma, 300 mg): 1380 ng/mL
Tmax ([3]; male, human, plasma, 300 mg): 1.5 h
concentration at 24 h ([3]; male, human, plasma, 300 mg): 9.93 ng/mL
AUC(0-t) ([3]; male, human, plasma, 450 mg): 10200 ng·h/mL
Cmax ([3]; male, human, plasma, 450 mg): 2580 ng/mL
Tmax ([3]; male, human, plasma, 450 mg): 2.5 h
concentration at 24 h ([3]; male, human, plasma, 450 mg): 17.6 ng/mL
half-life ([3]; male, human, plasma, po, elimination half-life, average, oral administration): 6 h
accumulation at steady state ([3]; repeated dosing): no accumulation
time to steady state of plasma concentrations ([3]; repeated dosing, regardless of dose and regimen (once or twice daily)): ≤ 2 days
SMILES: O=C(Nc1nc2cccc(-c3ccc(CN4CCS(=O)(=O)CC4)cc3)n2n1)C1CC1 [Filgotinib]
selectivity for JAK1- over JAK2-dependent signaling (JAK1): 30 fold
log H (hill factor) [4]: 0.680 (27.7)
